Reference: BindingDB's records for doi:10.1016/s0960-894x(03)00298-1 (Cubist Pharmaceutical, 2003)

What was measured:
[1] = molecular target: Methionyl-tRNA synthetase (Staphylococcus aureus); test: Inhibitory activity against Staphylococcus aureus methionyl-tRNA synthetase (SaMetRS)
[2] = molecular target: Methionyl-tRNA synthetase (Enterococcus faecalis); test: Inhibitory activity against Enterococci faecalis methionyl-tRNA synthetase (EfMetRS)
[3] = molecular target: Methionyl-tRNA synthetase (Staphylococcus aureus); test: Inhibitory activity against Staphylococcus aureus methionyl-tRNA synthetase (SaMetRS); remark: listed apart in the source
[4] = molecular target: Methionyl-tRNA synthetase (Staphylococcus aureus); test: as above; remark: listed apart in the source

| IC50 [2] [µM] | IC50 [3] [µM] | Compound | other results |
| --- | --- | --- | --- |
| 1.93 | – | O=C(O)c1cc(-c2ccc(-c3ccc(Cl)cc3Cl)cc2)n(-c2ccccn2)n1 [5-(2',4'-Dichloro-biphenyl-4-yl)-1-pyridin-2-yl-1H-pyrazole-3-carboxylic acid] | IC50 [1]: 0.63 µM |
| – | 0.66 | O=C(O)c1cc(-c2ccc(-c3ccc(Cl)cc3Cl)cc2)n(Cc2cccnc2)n1 [5-(2',4'-Dichloro-biphenyl-4-yl)-1-pyridin-3-ylmethyl-1H-pyrazole-3-carboxylic acid] | – |
| – | – | O=C(O)c1cc(-c2ccc(-c3ccc(Cl)cc3Cl)cc2)n(-c2cccnc2)n1 [5-(2',4'-Dichloro-biphenyl-4-yl)-1-pyridin-3-yl-1H-pyrazole-3-carboxylic acid] | IC50 [1]: 0.3 µM |
| – | – | NC(=O)c1cc(-c2ccc(-c3ccc(Cl)cc3Cl)cc2)n(-c2ccccn2)n1 [5-(2',4'-Dichloro-biphenyl-4-yl)-1-pyridin-2-yl-1H-pyrazole-3-carboxylic acid amide] | IC50 [1]: 2.95 µM |
| 11.4 | – | O=C(O)c1cc(-c2ccc(-c3ccc(Cl)cc3Cl)cc2)n(CCO)n1 [5-(2',4'-Dichloro-biphenyl-4-yl)-1-(2-hydroxy-ethyl)-1H-pyrazole-3-carboxylic acid] | IC50 [1]: 4.46 µM |
| – | 2.68 | O=C(O)c1cc(-c2ccc(-c3ccc(Cl)cc3Cl)cc2)nn1Cc1ccccn1 [5-(2',4'-Dichloro-biphenyl-4-yl)-2-pyridin-2-ylmethyl-2H-pyrazole-3-carboxylic acid] | – |
| – | 0.5 | O=C(O)c1cc(-c2ccc(-c3ccc(Cl)cc3Cl)cc2)n(Cc2ccncc2)n1 [5-(2',4'-Dichloro-biphenyl-4-yl)-1-pyridin-4-ylmethyl-1H-pyrazole-3-carboxylic acid] | – |
| – | 17.2 | O=C(O)c1cc(-c2ccc(-c3ccc(F)c(Cl)c3)cc2)n(-c2ccc(Cl)cc2Cl)n1 [5-(3'-Chloro-4'-fluoro-biphenyl-4-yl)-1-(2,4-dichloro-phenyl)-1H-pyrazole-3-carboxylic acid] | – |
| – | – | O=C(O)Cn1nc(C(=O)O)cc1-c1ccc(-c2ccc(Cl)cc2Cl)cc1 [1-Carboxymethyl-5-(2',4'-dichloro-biphenyl-4-yl)-1H-pyrazole-3-carboxylic acid] | IC50 [4]: 3.42 µM |
| – | 40.9 | O=C(O)c1cc(-c2ccc(-c3ccccc3)cc2)n(-c2ccc(Cl)cc2Cl)n1 [5-Biphenyl-4-yl-1-(2,4-dichloro-phenyl)-1H-pyrazole-3-carboxylic acid] | – |
| – | – | CCn1nc(C(=O)O)cc1-c1ccc(-c2ccc(Cl)cc2Cl)cc1 [5-(2',4'-Dichloro-biphenyl-4-yl)-1-ethyl-1H-pyrazole-3-carboxylic acid] | IC50 [4]: 1.02 µM |
| – | – | COc1ccc(-n2nc(C(=O)O)cc2-c2ccc(-c3ccc(Cl)cc3Cl)cc2)cc1 [5-(2',4'-Dichloro-biphenyl-4-yl)-1-(4-methoxy-phenyl)-1H-pyrazole-3-carboxylic acid] | IC50 [4]: 10.5 µM |
| – | 5.47 | O=C(O)c1cc(-c2ccc(-c3ccc(Cl)cc3Cl)cc2)n(-c2ccccc2)n1 [5-(2',4'-Dichloro-biphenyl-4-yl)-1-phenyl-1H-pyrazole-3-carboxylic acid] | – |
| 8.99 | 4.88 | O=C(O)c1cc(-c2ccc(-c3ccc(Cl)cc3Cl)cc2)n(-c2ccc(Cl)cc2Cl)n1 [5-(2',4'-Dichloro-biphenyl-4-yl)-1-(2,4-dichloro-phenyl)-1H-pyrazole-3-carboxylic acid] | – |
| 17.8 | – | COc1ccccc1-n1nc(C(=O)O)cc1-c1ccc(-c2ccc(Cl)cc2Cl)cc1 [5-(2',4'-Dichloro-biphenyl-4-yl)-1-(2-methoxy-phenyl)-1H-pyrazole-3-carboxylic acid] | IC50 [4]: 1.51 µM |
| 29.9 | – | O=C(O)c1cc(-c2ccc(-c3ccc(Cl)cc3Cl)cc2)n(Cc2ccccc2)n1 [1-Benzyl-5-(2',4'-dichloro-biphenyl-4-yl)-1H-pyrazole-3-carboxylic acid] | IC50 [4]: 3.94 µM |
| 3.7 | – | O=C(NCc1nnn[nH]1)c1cc(-c2ccc(-c3ccc(Cl)cc3Cl)cc2)n(-c2cccnc2)n1 [5-(2',4'-Dichloro-biphenyl-4-yl)-1-pyridin-3-yl-1H-pyrazole-3-carboxylic acid (1H-tetrazol-5-ylmethyl)-amide] | IC50 [1]: 0.13 µM |
